Assay results reported in patent US20090208539A1, “STABLE ATORVASTATIN FORMULATIONS” (priority 2004, published 2009).

Experiment: Compatibility test of atorvastatin calcium with excipients (water added, sealed vial, 50° C., two weeks; impurities by HPLC, physical changes)
Format: physicochemical
Details: for Compatibility: 0.2 ml water added, sealed vial, two weeks
Experimental: In order for an excipient to be used with an embodiment of the formulation of the present invention, it was required to perform acceptably during the compatibility testing. The acceptance criteria for the compatibility test were as follows. […] Physical stability was determined by examining the mixture's appearance in terms of discoloration, liquefaction, dryness and odor or gas.
A granulate or dry mix of the drug substance and each of the excipients requested to the expected ratio in the possible final formulas was prepared. The granulate was prepared manually with a mortar and pestle. The active ingredient is mixed with the ingredient(s) to be tested, then granulated in a mortar and pestle using the aqueous granulation solution. The wet granulate was then dried in an oven at 60° C. down to LOD<5% and then milled.
The compatibility test was performed as follows. Each mixture (blend or granulate) was transferred to a vial, 0.2 ml of purified water was added, and the mixtures were mixed with a Pasteur pipette, which was then broken and inserted in the vial in order to avoid any loss of material.
The vials were then sealed and stored at a temperature of 50° C. for two weeks.
After two weeks the vials were removed, examined for physical changes and were tested for impurities according to the HPLC method (RD 2000-1) as described in greater detail below.
75 ml of diluent was added and the samples were shaken for 30 min, and then diluted to volume with diluent.
5 ml of the above mentioned solution was transferred and diluted in a 10 ml volumetric flask. The diluent for all experiments was water:methanol mixture.
Part of each dry granulate was placed in a 34 ml Securitainer® (a regular secure medicine bottle made from high density polyethylene; available from Jaycare Ltd in the United Kingdom) and placed in incubator at 40° C./75% RH for a 6 month stability study. Next, separate samples containing 1 g of each dry granulate were mixed with 200 μl water (LOD of the blend 16.67%), closed in a glass vial and stored at 50° C. for a 2 week compatibility test.
Results of those compatibility and stability studies are summarized in table 4; a more detailed description of the same results is provided in table 5 below. Stability or compatibility criteria were defined as: maximum known impurity <0.5% (preferably comprising one or both of the Desfluoro (Desfl.) or lactone (Lact.) degradation forms); maximum unknown impurity <0.5%, preferably <0.3%; total impurities <1.5%.
One gram of each blend was mixed with 200 μl purified water (LOD of the blend was 16.67%), placed in a closed glass vial and placed for 2 weeks in an incubator at 50° C. for a compatibility test.

[1] = amorphous atorvastatin calcium, no excipient, 2 weeks, 16.7% LOD

| SMILES | Compatibility (amorphous Atorvastatin Ca dry mixes) | Compatibility (crystalline form VI Atorvastatin Ca granulates) | Desfluoro [1] | Lactone [1] | Max unknown impurity [1] | Total Impurities [1] |
| --- | --- | --- | --- | --- | --- | --- |
| CC(C)c1c(C(=O)Nc2ccccc2)c(-c2ccccc2)c(-c2ccc(F)cc2)n1CC[C@@H](O)C[C@@H](O)CC(=O)[O-].CC(C)c1c(C(=O)Nc2ccccc2)c(-c2ccccc2)c(-c2ccc(F)cc2)n1CC[C@@H](O)C[C@@H](O)CC(=O)[O-].[Ca+2] [Vial 1] | Stable | Stable | – | – | – | – |
| CC(C)c1c(C(=O)Nc2ccccc2)c(-c2ccccc2)c(-c2ccc(F)cc2)n1CC[C@@H](O)C[C@@H](O)CC(=O)[O-].CC(C)c1c(C(=O)Nc2ccccc2)c(-c2ccccc2)c(-c2ccc(F)cc2)n1CC[C@@H](O)C[C@@H](O)CC(=O)[O-].[Ca+2] [Reference (no excipient added)] | – | – | 0.12% | 0.04% | 0.05% | 0.33% |
